Reference: PubChem BioAssay AID330 (DTP/NCI, 2004)
“And” between values parts separate entries of the source, which are not always exact repeats. Equal values may be shown once. Inconclusive results and toxic doses are left out. Peptide text beside a SMILES is read from it. * marks the point of attachment. Trt = c1ccc(C(c2ccccc2)(c2ccccc2)*)cc1; Cbz = O=C(OCc1ccccc1)*; Bz = O=C(c1ccccc1)*

Tested on: P388 leukemia ip, CD2F1 mice, survival T/C
Assay: NCI In Vivo Anticancer Drug Screen. Data for tumor model P388 Leukemia (intraperitoneal) in CD2F1 (CDF1) mice
Conditions: endpoint: median survival time, higher = longer survival
In short: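 Mice carrying the transplanted tumor received test compound or vehicle. Survival was recorded in each group, and the value is the treated-group measurement divided by that of the vehicle-treated control group.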

[1] = dose: 50.0 mg/kg/injection, schedule: Q01DX009 (ip), vehicle: saline
[2] = dose: 100.0 mg/kg/injection, schedule: Q01DX009 (ip), vehicle: saline
[3] = dose: 60.0 mg/kg/injection, schedule: Q01DX005 (ip), vehicle: saline with Tween-80
[4] = dose: 120.0 mg/kg/injection, schedule: Q01DX005 (ip), vehicle: saline with Tween-80
[5] = dose: 240.0 mg/kg/injection, schedule: Q01DX005 (ip), vehicle: saline with Tween-80
[6] = dose: 25.0 mg/kg/injection, schedule: Q01DX009 (ip), vehicle: Klucel (hydroxypropylcellulose) (HPC)
[7] = dose: 50.0 mg/kg/injection, schedule: Q01DX009 (ip), vehicle: Klucel (hydroxypropylcellulose) (HPC)
[8] = dose: 100.0 mg/kg/injection, schedule: Q01DX009 (ip), vehicle: Klucel (hydroxypropylcellulose) (HPC)
[9] = dose: 200.0 mg/kg/injection, schedule: Q01DX009 (ip), vehicle: Klucel (hydroxypropylcellulose) (HPC)
[10] = dose: 50.0 mg/kg/injection, schedule: Q04DX003 (ip), vehicle: saline with Tween-80
[11] = dose: 50.0 mg/kg/injection, schedule: Q01DX009 (ip), vehicle: saline with Tween-80
[12] = dose: 100.0 mg/kg/injection, schedule: Q01DX009 (ip), vehicle: saline with Tween-80
[13] = dose: 200.0 mg/kg/injection, schedule: Q01DX009 (ip), vehicle: saline with Tween-80
[14] = dose: 25.0 mg/kg/injection, schedule: Q01DX009 (ip), vehicle: saline with Tween-80
[15] = dose: 60.0 mg/kg/injection, schedule: Q01DX005 (ip), vehicle: Klucel (hydroxypropylcellulose) (HPC)
[16] = dose: 25.0 mg/kg/injection, schedule: Q01DX009 (ip), vehicle: saline
[17] = dose: 100.0 mg/kg/injection, schedule: Q04DX002 (ip), vehicle: saline
[18] = dose: 200.0 mg/kg/injection, schedule: Q04DX002 (ip), vehicle: saline
[19] = dose: 400.0 mg/kg/injection, schedule: Q04DX002 (ip), vehicle: saline

With `O=C(O)CCCSC1=CC(=O)c2ccccc2C1=O` the T/C (dose: 1.56 mg/kg/injection, schedule: Q04DX003 (ip), vehicle: DMSO) was 89 % of control, the T/C (dose: 3.12 mg/kg/injection, schedule: Q04DX003 (ip), vehicle: DMSO) was 96 % of control and the T/C (dose: 6.25 mg/kg/injection, schedule: Q04DX003 (ip), vehicle: DMSO) was 100 % of control and 93 % of control. For the same compound, the T/C (dose: 12.5 mg/kg/injection, schedule: Q04DX003 (ip), vehicle: DMSO) was 100 % of control.

For `FS(F)(F)(F)(F)c1cccc(NC(=S)SCc2ccc(Cl)cc2)c1`, the T/C [1] was 100 % of control, the T/C [2] was 101 % of control and 95 % of control and the T/C (dose: 200.0 mg/kg/injection, schedule: Q01DX009 (ip), vehicle: saline) was 107 % of control and 118 % of control.

`CCOC(=O)/C(C#N)=C/Nc1[nH]c(=O)c(C#N)c(-c2ccc(Cl)cc2)c1SC` was tested, and the T/C [3] was 110 % of control, the T/C [4] was 100 % of control and the T/C [5] was 108 % of control.

For `c1cc2c3c(cccc3c1)-c1nc3ccccc3nc1-2`, the T/C [6] was 101 % of control, the T/C [7] was 100 % of control and the T/C [8] was 92 % of control.

`COc1cccc2c1C(=O)OC2=O` was tested, and the T/C (dose: 12.5 mg/kg/injection, schedule: Q01DX009 (ip), vehicle: Klucel (hydroxypropylcellulose) (HPC)) was 105 % of control, the T/C [6] was 105 % of control and the T/C [7] was 112 % of control. For the same compound, the T/C [8] was 97 % of control and the T/C [9] was 96 % of control.

In the case of `O.O.[Cl][Pt+2][Cl].[NH-]C1CC2CCC1C2.[NH-]C1CC2CCC1C2` (configuration not stated), the T/C (dose: 33.0 mg/kg/injection, schedule: Q04DX003 (ip), vehicle: saline with Tween-80) is reported as 154 % of control and the T/C [10] is reported as 150 % of control.

With `Cn1c(O)c(N=O)c(=O)[nH]c1=O` the T/C [11] was 95 % of control, the T/C [12] was 99 % of control and the T/C (dose: 100.0 mg/kg/injection, schedule: Q04DX002 (ip), vehicle: saline with Tween-80) was 100 % of control. For the same compound, the T/C [13] was 87 % of control.

In the case of `CCCCCC(C=O)C(O)(C(F)(F)F)C(F)(F)Cl` (configuration not stated), the T/C [10] is reported as 100 % of control, the T/C (dose: 100.0 mg/kg/injection, schedule: Q04DX003 (ip), vehicle: saline with Tween-80) is reported as 100 % of control and the T/C (dose: 200.0 mg/kg/injection, schedule: Q04DX003 (ip), vehicle: saline with Tween-80) is reported as 109 % of control.

With `c1ccc(C2CN3CCSC3=N2)cc1` (configuration not stated) the T/C (dose: 3.13 mg/kg/injection, schedule: Q01DX009 (ip), vehicle: saline with Tween-80) was 98 % of control, the T/C (dose: 3.75 mg/kg/injection, schedule: Q01DX005 (ip), vehicle: saline) was 101 % of control and the T/C (dose: 6.25 mg/kg/injection, schedule: Q01DX009 (ip), vehicle: saline with Tween-80) was 100 % of control. The T/C (dose: 7.5 mg/kg/injection, schedule: Q01DX005 (ip), vehicle: saline) was 100 % of control, the T/C (dose: 12.5 mg/kg/injection, schedule: Q01DX009 (ip), vehicle: saline with Tween-80) was 98 % of control and the T/C (dose: 15.0 mg/kg/injection, schedule: Q01DX005 (ip), vehicle: saline) was 99 % of control. For the same compound, the T/C [14] was 103 % of control.

With `COC(=O)C(CSC(=O)c1ccccc1)NC(=O)CNC(=O)CNC(=O)C(CCCCNC(=O)OCc1ccccc1)NC(=O)CNC(=O)C(CSC(c1ccccc1)(c1ccccc1)c1ccccc1)NC(=O)OCc1ccccc1` (configuration not stated) (Cbz-C(Trt)GK(Cbz)GGC(Bz)-OMe; configuration not given here) the T/C [15] was 97 % of control, the T/C (dose: 120.0 mg/kg/injection, schedule: Q01DX005 (ip), vehicle: Klucel (hydroxypropylcellulose) (HPC)) was 97 % of control and the T/C (dose: 240.0 mg/kg/injection, schedule: Q01DX005 (ip), vehicle: Klucel (hydroxypropylcellulose) (HPC)) was 88 % of control.

In the case of `CCOc1cc(C)c(C(CC(=O)O)CC(=O)N(CCCl)CCCl)cc1C(C)C` (configuration not stated), the T/C (dose: 100.0 mg/kg/injection, schedule: Q04DX003 (ip), vehicle: saline) is reported as 107 % of control, the T/C (dose: 200.0 mg/kg/injection, schedule: Q04DX003 (ip), vehicle: saline) is reported as 100 % of control and the T/C (dose: 400.0 mg/kg/injection, schedule: Q04DX003 (ip), vehicle: saline) is reported as 108 % of control.

With `CCOC(=O)CC(C)=N` the T/C [14] was 112 % of control, the T/C [11] was 99 % of control and 110 % of control and 114 % of control and the T/C [12] was 106 % of control and 107 % of control and 113 % of control. The T/C [13] was 103 % of control and 109 % of control and 123 % of control and the T/C (dose: 400.0 mg/kg/injection, schedule: Q01DX009 (ip), vehicle: saline with Tween-80) was 103 % of control and 105 % of control.

For `CCOC(=O)NC(CC(NC(=O)OCC)NC(=O)OCC)NC(=O)OCC`, the T/C (dose: 50.0 mg/kg/injection, schedule: Q01DX005 (ip), vehicle: saline with Tween-80) was 108 % of control, the T/C (dose: 100.0 mg/kg/injection, schedule: Q01DX005 (ip), vehicle: saline with Tween-80) was 107 % of control and the T/C (dose: 200.0 mg/kg/injection, schedule: Q01DX005 (ip), vehicle: saline with Tween-80) was 110 % of control.

For `CC(C)N1CCOCC1`, the T/C [16] was 110 % of control, the T/C [1] was 105 % of control and 100 % of control and the T/C [2] was 105 % of control and 113 % of control.

With `O=C1CCC(c2nc3ccccc3[nH]2)N1Cc1ccccc1` (configuration not stated) the T/C [3] was 97 % of control, the T/C [4] was 90 % of control and the T/C [5] was 89 % of control.

With `COc1ccc(Br)cc1-c1cc2cccc[n+]2o1` the T/C (dose: 12.5 mg/kg/injection, schedule: Q01DX009 (ip), vehicle: saline) was 101 % of control and the T/C [16] was 109 % of control.

In the case of `NC(=O)N/N=C1\CC2C=CC1/C=C\C=C\2` (configuration not stated), the T/C (dose: 100.0 mg/kg/injection, schedule: Q01DX001 (ip), vehicle: saline with Tween-80) is reported as 100 % of control, the T/C (dose: 200.0 mg/kg/injection, schedule: Q01DX001 (ip), vehicle: saline with Tween-80) is reported as 106 % of control and the T/C (dose: 400.0 mg/kg/injection, schedule: Q01DX001 (ip), vehicle: saline with Tween-80) is reported as 106 % of control.

In the case of `CNC(=O)OCc1c(COC(=O)NC)c2n(c1C)CCc1ccccc1-2`, the T/C (dose: 12.5 mg/kg/injection, schedule: Q01DX009 (ip), vehicle: distilled water + Tween-80) is reported as 153 % of control.

`COc1ccc(CCNC(=O)CCN2C(=O)CCC2=O)cc1OC` was tested, and the T/C (dose: 100.0 mg/kg/injection, schedule: Q01DX009 (ip), vehicle: saline sonified) was 105 % of control, the T/C (dose: 200.0 mg/kg/injection, schedule: Q01DX009 (ip), vehicle: saline sonified) was 105 % of control and the T/C (dose: 400.0 mg/kg/injection, schedule: Q01DX009 (ip), vehicle: saline sonified) was 110 % of control.

With `CC(=O)OC1CC2C(C)(C)OC(=O)C=CC2(C)C2CCC3(C)C(c4ccoc4)C(=O)C4OC43C12C` (configuration not stated) the T/C (dose: 7.5 mg/kg/injection, schedule: Q01DX005 (ip), vehicle: Klucel (hydroxypropylcellulose) (HPC)) was 88 % of control, the T/C (dose: 15.0 mg/kg/injection, schedule: Q01DX005 (ip), vehicle: Klucel (hydroxypropylcellulose) (HPC)) was 93 % of control and the T/C (dose: 30.0 mg/kg/injection, schedule: Q01DX005 (ip), vehicle: Klucel (hydroxypropylcellulose) (HPC)) was 95 % of control. The T/C [15] was 93 % of control.

In the case of `C=CCSc1nc2ccc(NCN3C(=O)c4ccccc4C3=O)cc2s1`, the T/C [7] is reported as 96 % of control, the T/C [8] is reported as 96 % of control and the T/C [9] is reported as 98 % of control.

In the case of `CC(C)(C)c1cc(OS(=O)(=O)C(F)(F)C(F)(F)C(F)(F)C(F)(F)F)cc(C(C)(C)C)c1`, the T/C [11] is reported as 106 % of control, the T/C [12] is reported as 108 % of control and the T/C [13] is reported as 108 % of control.

For `O=P(N1CC=CCC1)(N1CC1)N1CC1`, the T/C (dose: 4.4 mg/kg/injection, schedule: Q04DX003 (ip), vehicle: saline) was 118 % of control, the T/C (dose: 5.56 mg/kg/injection, schedule: Q01DX009 (ip), vehicle: saline) was 154 % of control and the T/C (dose: 6.6 mg/kg/injection, schedule: Q04DX003 (ip), vehicle: saline) was 113 % of control. The T/C (dose: 8.33 mg/kg/injection, schedule: Q01DX009 (ip), vehicle: saline) was 209 % of control and the T/C (dose: 10.0 mg/kg/injection, schedule: Q04DX003 (ip), vehicle: saline) was 118 % of control.

In the case of `C[N+]1(C)N=C([O-])N(c2ccc(Cl)cc2)C1=O`, the T/C [17] is reported as 100 % of control, the T/C [18] is reported as 103 % of control and the T/C [19] is reported as 102 % of control.

`CN(NC(=O)C(=O)NCc1ccco1)C(=O)Nc1ccc(Cl)cc1` was tested, and the T/C [11] was 103 % of control, the T/C [12] was 100 % of control and the T/C [13] was 92 % of control.

With `CC1(C)CC(OC(=S)S)CC(C)(C)N1O` the T/C [17] was 100 % of control, the T/C [18] was 98 % of control and the T/C [19] was 100 % of control.
